# Source: patent US12564610B2, “Human periventricular endothelial cell therapy for neuropsychiatric disorders” (The McLean Hospital Corporation, priority 2019, dated 2026)
# Columns and labels:
# Type in all cases: cell-based
# [1] = test system: human periventricular endothelial cells; test: Long-distance migration assay of periventricular endothelial cells with chemicals; settings: compared to control (no chemicals added), five days
# Excerpt: Long-distance migration assay: In preparation for migration assays, two-well silicone culture inserts (from ibidi GmbH, Cat #80209) were converted into one-well inserts by cutting with a sharp, sterile blade. Individual one-well inserts were placed in the middle of a 35 mm dish coated with Poly-Ornithine and Laminin. The boundary of the insert was marked on the back of each dish with a thin marker. For this assay, periventricular endothelial cells, control endothelial cells and endothelial cells derived without GABA and WNT7A were used at passage number P2 or P3, while GABA interneurons cultured for six weeks were used. 10^4 periventricular endothelial cells or endothelial cells derived without GABA and WNT7A were seeded in each insert in periventricular endothelial cell medium without GABA. Same number of GABAergic interneurons or control endothelial cells were seeded per insert in their respective manufacturer's recommended medium. The insert was removed after 48 hours and cells cultured for five days. After 5 days, cells were fixed and fluorescently labeled with an anti-human CD31 antibody (for endothelial cells) or an anti-human β-Tubulin antibody (for neurons) and DAPI. The distance between each cell body and the edge of the insert-boundary was measured using ImageJ.
# Migration assays with chemicals: To assess the roles of GABA or SDF-1/CXCL12 signaling on migration of human periventricular endothelial cells, 10^4 cells were seeded in one well insert and allowed to migrate in the presence of respective agonist or antagonist in periventricular endothelial cell medium (without GABA). After five days, cells were fixed, stained with anti-human CD31 antibody (Millipore), imaged and the distance migrated was calculated using ImageJ. To examine the effect of endothelial GABA or endothelial SDF-1/CXCL12 signaling on interneuron migration, human periventricular endothelial cells were seeded in 35 mm dish (10^5 cells/cm^2) and incubated with respective chemical for a period of 48 hours. […]
# [2] = test system: GABAergic interneurons on pre-incubated human periventricular endothelial cells; test: Interneuron migration over chemical-pre-treated periventricular endothelial cells; settings: interneurons migrate 48 hours, vs control
# Description: Migration assays with chemicals: To assess the roles of GABA or SDF-1/CXCL12 signaling on migration of human periventricular endothelial cells, 10^4 cells were seeded in one well insert and allowed to migrate in the presence of respective agonist or antagonist in periventricular endothelial cell medium (without GABA). After five days, cells were fixed, stained with anti-human CD31 antibody (Millipore), imaged and the distance migrated was calculated using ImageJ. To examine the effect of endothelial GABA or endothelial SDF-1/CXCL12 signaling on interneuron migration, human periventricular endothelial cells were seeded in 35 mm dish (10^5 cells/cm^2) and incubated with respective chemical for a period of 48 hours. 3×10^4 GABAergic interneurons were seeded on top of the periventricular endothelial cells using a one-well insert, and allowed to migrate over the pre-incubated periventricular endothelial cells for 2 days. Migration of neurons was assayed by staining with anti-human β-Tubulin antibody (Biolegend) and imaged. The concentration of chemicals used in the assays are as follows: muscimol (Sigma) 100 uM, BMI (Sigma) 100 uM, AMD3100 (Sigma) 50 μM, recombinant human SDF-1α (Peprotech) 40 nM. The chemicals were kept at −20° as concentrated stock solutions and diluted on the day of the experiment.
# [3] = test system: human periventricular endothelial cells; test: Junction protein immunostaining in differentiating periventricular endothelial cells (effect of GABA / WNT7A)
# Description: Endothelial cell differentiation and culture: H9 cells (WiCell, Madison, WI) were maintained in E8 media (Thermo Fisher Scientific) on Matrigel (BD Biosciences)-coated plates and passaged once a week with 0.5 mM EDTA (Thermo Fisher Scientific) in PBS. On day 0 of differentiation, H9 cells were dissociated with Accutase (Sigma), and plated at a density of 10^5 cells/cm^2 on Matrigel-coated plates. […] Rock inhibitor, Y-27632 (1004, Selleck Chemicals) was added for first 24 hours to improve cell survival. On day 2, cells were switched to vascular inducing medium composed of E6 medium (Thermo Fisher Scientific) containing BMP4 (50 ng/ml), SB431542 (5 μM, Cayman Chemicals), GABA (5 μM), WNT7A (500 ng/ml), FGF2 (100 ng/ml, Peprotech) and VEGF-A (50 ng/ml, Peprotech). On day 5, cells were split at 1:6 ratio using Accutase and plated on Matrigel-coated plates in periventricular endothelial cell (PVEC) medium consisting of E6 with VEGF-A (50 ng/ml), FGF2 (100 ng/ml) and GABA (5 μM). On day 7, periventricular endothelial cells were isolated from the mixed population by fluorescence-activated cell sorting (FACS) and seeded on Matrigel-coated plates in periventricular endothelial cells medium at a density of 6×10^5 cells/cm^2. For routine culturing, periventricular endothelial cells were dissociated using Accutase, and seeded on Matrigel-coated plates at a density of 6×10^5 cells/cm^2 (high density seeding) or 1.2×10^5 cells/cm^2 (low density seeding), with medium change every alternate day. Periventricular endothelial cells were cryopreserved after at least one passaging in freezing medium composed of 90% periventricular endothelial cells medium and 10% DMSO. As a source of neurons, we used human iPSC-derived GABAergic neurons from Cellular Dynamics (Madison, WI, Cat #R1013). As control for microarray analysis and for cell migration assays, we used human-iPSC derived endothelial cells from Cellular Dynamics (Madison WI, Cat #R1022), whose gene expression profile is similar to human aortic endothelial cells (HAECs; https://fujifilmedi.com/assets/CDI130925MIPTEC04.pdf). […]
# [4] = endothelial cells treated 48 hours with 100 μM
smiles,measurement,setting,value
c1cc(CN2CCCNCCNCCCNCC2)ccc1CN1CCCNCCNCCCNCC1 [AMD3100],periventricular endothelial cell migration,[1]; 50 μM,no significant effect on endothelial cell migration
same,interneuron migration on pre-treated periventricular endothelial cells,[2]; endothelial cells treated 48 hours with 50 μM,No discernible effect on interneuron migration
"C[N+]1(C)CCc2cc3c(cc2[C@H]1[C@@H]1OC(=O)c2c1ccc1c2OCO1)OCO3.[I-] [BMI, bicuculline methiodide]",periventricular endothelial cell migration,[1]; 100 μM,significant decrease in cell migration
same,interneuron migration on pre-treated periventricular endothelial cells,[2]; [4],decreased migration
"NCCCC(=O)O [GABA, gamma amino-butyric acid]",tight junction formation (Claudin5 and ZO-1 staining),"[3]; 5 uM GABA, in comparison to 50 μM or 100 μM",increases tight junction formation
same,localization of tight junction proteins Claudin 5 and ZO-1,[3]; 50 uM or 100 μM GABA,disrupted the localization of tight junction proteins Claudin 5 and ZO-1
same,expression of VE-Cadherin,"[3]; increase in GABA levels (5, 50, 100 μM)",not affected by increase in GABA levels
NCc1cc(=O)[nH]o1 [muscimol],periventricular endothelial cell migration,[1]; 100 μM,significant increase in the number of migrating cells
same,interneuron migration on pre-treated periventricular endothelial cells,[2]; [4],significantly higher migratory ability
